Each compound was assayed on HCT116 colorectal cancer cells (assay: Cisplatin sensitization assay (96 h cell viability MTS)). Conditions: 96 h MTS, compound plus Cisplatin.
Format: cell-based
Procedure, shortened: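 Test compound and cisplatin were added together as a full matrix of 2-fold serial dilutions, each from a top final concentration of 10 μM. Cells were incubated 96 h at 37° C in 5% CO2, then viability was read by MTS after a further 1 h incubation.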
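Also: compound concentration needed to lower the Cisplatin-alone IC50 by a set fold.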

| Structure (SMILES) | Cisplatin Sensitization Assay |
| --- | --- |
| CN1CCC[C@@H]1C(=O)N1CCN(c2c(F)cncc2NC(=O)c2c(N)nn3cc(F)cnc23)CC1 [I-N-181, (R)-2-amino-6-fluoro-N-(5-fluoro-4-(4-(1-methylpyrrolidine-2-carbonyl)piperazin-1-yl)pyridin-3-yl)pyrazolo[1,5-a]pyrimidine-3-carboxamide] | +++ (Compounds with a Cisplatin sensitization value of <0.02 μM are marked with “+++.”) |
| Nc1nn2cc(F)cnc2c1C(=O)Nc1cncc(F)c1N1CCN2C(=O)CC[C@@H]2C1 [I-N-182, (R)-2-amino-6-fluoro-N-(5-fluoro-4-(6-oxohexahydropyrrolo[1,2-a]pyrazin-2(1H)-yl)pyridin-3-yl)pyrazolo[1,5-a]pyrimidine-3-carboxamide] | ++ (Compounds with a Cisplatin sensitization value >0.02 μM but <0.2 μM are marked with “++.”) |
| CN1CCOC2(CCN(c3ccncc3NC(=O)c3c(N)nn4cc(F)cnc34)CC2)C1 [I-N-183, 2-amino-6-fluoro-N-(4-(4-methyl-1-oxa-4,9-diazaspiro[5.5]undecan-9-yl)pyridin-3-yl)pyrazolo[1,5-a]pyrimidine-3-carboxamide] | +++ (Compounds with a Cisplatin sensitization value of <0.02 μM are marked with “+++.”) |
| Nc1nn2cc(F)cnc2c1C(=O)Nc1cncc(F)c1N1CCC(c2nccs2)CC1 [I-N-184, 2-amino-6-fluoro-N-(5-fluoro-4-(4-(thiazol-2-yl)piperidin-1-yl)pyridin-3-yl)pyrazolo[1,5-a]pyrimidine-3-carboxamide] | ++ (Compounds with a Cisplatin sensitization value >0.02 μM but <0.2 μM are marked with “++.”) |
| CCN1CCCC1C(=O)N1CCN(c2c(F)cncc2NC(=O)c2c(N)nn3cc(F)cnc23)CC1 (stereo not shown) [I-N-185, 2-amino-N-(4-(4-(1-ethylpyrrolidine-2-carbonyl)piperazin-1-yl)-5-fluoropyridin-3-yl)-6-fluoropyrazolo[1,5-a]pyrimidine-3-carboxamide] | ++ (Compounds with a Cisplatin sensitization value >0.02 μM but <0.2 μM are marked with “++.”) |
| Nc1nn2cc(F)cnc2c1C(=O)Nc1cncc(F)c1N1CCN2C(=O)CC[C@@H]2C1 [I-N-186, (R)-2-amino-6-fluoro-N-(5-fluoro-4-(6-oxohexahydropyrrolo[1,2-a]pyrazin-2(1H)-yl)pyridin-3-yl)pyrazolo[1,5-a]pyrimidine-3-carboxamide] | +++ (Compounds with a Cisplatin sensitization value of <0.02 μM are marked with “+++.”) |
| Nc1nn2cc(F)cnc2c1C(=O)Nc1cncc(F)c1N1CCN(C(=O)CN2CCCC2)CC1 [I-N-187, 2-amino-6-fluoro-N-(5-fluoro-4-(4-(2-(pyrrolidin-1-yl)acetyl)piperazin-1-yl)pyridin-3-yl)pyrazolo[1,5-a]pyrimidine-3-carboxamide] | +++ (Compounds with a Cisplatin sensitization value of <0.02 μM are marked with “+++.”) |
| CN1CCC(S(=O)(=O)N2CCN(c3ccncc3NC(=O)c3c(N)nn4cc(F)cnc34)CC2)CC1 [I-N-188, 2-amino-6-fluoro-N-(4-(4-((1-methylpiperidin-4-yl)sulfonyl)piperazin-1-yl)pyridin-3-yl)pyrazolo[1,5-a]pyrimidine-3-carboxamide] | +++ (Compounds with a Cisplatin sensitization value of <0.02 μM are marked with “+++.”) |
| Nc1nn2cc(F)cnc2c1C(=O)Nc1cncc(F)c1N1CCC(N2CCOCC2)CC1 [I-N-189, 2-amino-6-fluoro-N-(5-fluoro-4-(4-morpholinopiperidin-1-yl)pyridin-3-yl)pyrazolo[1,5-a]pyrimidine-3-carboxamide] | +++ (Compounds with a Cisplatin sensitization value of <0.02 μM are marked with “+++.”) |
| CS(=O)(=O)C1CCN(c2ccncc2NC(=O)c2c(N)nn3cc(F)cnc23)CC1 [I-N-190, 2-amino-6-fluoro-N-(4-(4-(methylsulfonyl)piperidin-1-yl)pyridin-3-yl)pyrazolo[1,5-a]pyrimidine-3-carboxamide] | +++ (Compounds with a Cisplatin sensitization value of <0.02 μM are marked with “+++.”) |
| CN1CCN(C(=O)C2CCN(c3c(F)cncc3NC(=O)c3c(N)nn4cc(F)cnc34)C2)CC1 (stereo not shown) [I-N-191, 2-amino-6-fluoro-N-(5-fluoro-4-(3-(4-methylpiperazine-1-carbonyl)pyrrolidin-1-yl)pyridin-3-yl)pyrazolo[1,5-a]pyrimidine-3-carboxamide] | + (Compounds with a Cisplatin sensitization value >0.2 μM but <5 μM are marked with “+.”) |
| CN1CCN(CC2CCN(c3c(F)cncc3NC(=O)c3c(N)nn4cc(C5(C#N)CC5)cnc34)CC2)CC1 [I-N-192, 2-amino-6-(1-cyanocyclopropyl)-N-(5-fluoro-4-(4-((4-methylpiperazin-1-yl)methyl)piperidin-1-yl)pyridin-3-yl)pyrazolo[1,5-a]pyrimidine-3-carboxamide] | +++ (Compounds with a Cisplatin sensitization value of <0.02 μM are marked with “+++.”) |
| CN1CCN(CC2CCN(c3c(F)cncc3NC(=O)c3c(N)nn4cc(F)cnc34)CC2)C(=O)C1 [I-N-193, 2-amino-6-fluoro-N-(5-fluoro-4-(4-((4-methyl-2-oxopiperazin-1-yl)methyl)piperidin-1-yl)pyridin-3-yl)pyrazolo[1,5-a]pyrimidine-3-carboxamide] | +++ (Compounds with a Cisplatin sensitization value of <0.02 μM are marked with “+++.”) |
| CN1CC(C(=O)N2CCN(c3c(F)cncc3NC(=O)c3c(N)nn4cc(F)cnc34)CC2)C1 [I-N-194] | +++ (Compounds with a Cisplatin sensitization value of <0.02 μM are marked with “+++.”) |
| Nc1nn2cc(F)cnc2c1C(=O)Nc1cnccc1N1CCN(S(=O)(=O)C2COC2)CC1 [I-N-195, 2-amino-6-fluoro-N-(4-(4-(oxetan-3-ylsulfonyl)piperazin-1-yl)pyridin-3-yl)pyrazolo[1,5-a]pyrimidine-3-carboxamide] | +++ (Compounds with a Cisplatin sensitization value of <0.02 μM are marked with “+++.”) |
| Nc1nn2cc(F)cnc2c1C(=O)Nc1cnccc1N1CCC(S(=O)(=O)N2CCN3CCC2CC3)CC1 [I-N-196, N-(4-(4-(1,4-diazabicyclo[3.2.2]nonan-4-ylsulfonyl)piperidin-1-yl)pyridin-3-yl)-2-amino-6-fluoropyrazolo[1,5-a]pyrimidine-3-carboxamide] | +++ (Compounds with a Cisplatin sensitization value of <0.02 μM are marked with “+++.”) |
| Nc1nn2cc(F)cnc2c1C(=O)Nc1cnccc1N1CCC(CN2CCC(F)(F)C2)CC1 [I-N-197, 2-amino-N-(4-(4-((3,3-difluoropyrrolidin-1-yl)methyl)piperidin-1-yl)pyridin-3-yl)-6-fluoropyrazolo[1,5-a]pyrimidine-3-carboxamide] | +++ (Compounds with a Cisplatin sensitization value of <0.02 μM are marked with “+++.”) |
| CN1CCC[C@H]1C(=O)N1CCN(c2ccncc2NC(=O)c2c(N)nn3cc(F)cnc23)CC1 [I-N-198, (S)-2-amino-6-fluoro-N-(4-(4-(1-methylpyrrolidine-2-carbonyl)piperazin-1-yl)pyridin-3-yl)pyrazolo[1,5-a]pyrimidine-3-carboxamide] | ++ (Compounds with a Cisplatin sensitization value >0.02 μM but <0.2 μM are marked with “++.”) |
| CN1CCC[C@@H]1C(=O)N1CCN(c2ccncc2NC(=O)c2c(N)nn3cc(F)cnc23)CC1 [I-N-199, (R)-2-amino-6-fluoro-N-(4-(4-(1-methylpyrrolidine-2-carbonyl)piperazin-1-yl)pyridin-3-yl)pyrazolo[1,5-a]pyrimidine-3-carboxamide] | +++ (Compounds with a Cisplatin sensitization value of <0.02 μM are marked with “+++.”) |
| Nc1nn2cc(F)cnc2c1C(=O)Nc1cnccc1N1CCC(S(=O)(=O)C2COC2)CC1 [I-N-200, 2-amino-6-fluoro-N-(4-(4-(oxetan-3-ylsulfonyl)piperidin-1-yl)pyridin-3-yl)pyrazolo[1,5-a]pyrimidine-3-carboxamide] | +++ (Compounds with a Cisplatin sensitization value of <0.02 μM are marked with “+++.”) |
| Nc1nn2cc(F)cnc2c1C(=O)Nc1cncc(F)c1N1CCN(S(=O)(=O)C2COC2)CC1 [I-N-201] | +++ (Compounds with a Cisplatin sensitization value of <0.02 μM are marked with “+++.”) |
| Nc1nn2cc(F)cnc2c1C(=O)Nc1cnccc1-n1ccnc1C1CC1 [I-N-202, 2-amino-N-(4-(2-cyclopropyl-1H-imidazol-1-yl)pyridin-3-yl)-6-fluoropyrazolo[1,5-a]pyrimidine-3-carboxamide] | +++ (Compounds with a Cisplatin sensitization value of <0.02 μM are marked with “+++.”) |
| Nc1nn2cc(F)cnc2c1C(=O)Nc1cncc(F)c1N1CCN(C(=O)C2CC3CCCCN3C2)CC1 (stereo not shown) [I-N-203, 2-amino-6-fluoro-N-(5-fluoro-4-(4-(octahydroindolizine-2-carbonyl)piperazin-1-yl)pyridin-3-yl)pyrazolo[1,5-a]pyrimidine-3-carboxamide] | +++ (Compounds with a Cisplatin sensitization value of <0.02 μM are marked with “+++.”) |
| CC(C)N1CCCC1C(=O)N1CCN(c2c(F)cncc2NC(=O)c2c(N)nn3cc(F)cnc23)CC1 (stereo not shown) [I-N-205, 2-amino-6-fluoro-N-(5-fluoro-4-(4-(1-isopropylpyrrolidine-2-carbonyl)piperazin-1-yl)pyridin-3-yl)pyrazolo[1,5-a]pyrimidine-3-carboxamide] | ++ (Compounds with a Cisplatin sensitization value >0.02 μM but <0.2 μM are marked with “++.”) |
| CC(C)N1CCC(C(=O)N2CCN(c3c(F)cncc3NC(=O)c3c(N)nn4cc(F)cnc34)CC2)C1 (stereo not shown) [I-N-206, 2-amino-6-fluoro-N-(5-fluoro-4-(4-(1-isopropylpyrrolidine-3-carbonyl)piperazin-1-yl)pyridin-3-yl)pyrazolo[1,5-a]pyrimidine-3-carboxamide] | +++ (Compounds with a Cisplatin sensitization value of <0.02 μM are marked with “+++.”) |
